Legend:
[1] = rat; cited from earlier work
[2] = Arterial plasma ^14 C activity by liquid scintillation counting; conditions: representative infected rat
[3] = rat, in vivo
Text: (§1) These initial studies reflect observations on ten rats receiving ^14 C-FMAU. Seven of these were infected, and three uninfected control rats were subjected to a cortical freeze lesion (13) to test the effects of necrosis and breakdown of the blood-brain barrier on drug distribution.

HSV-1 = assay: Quantitative autoradiography of ^14 C-FMAU uptake in HSV-1-infected rats (focal encephalitis); conditions: for ^14 C Radioactivity Concentration: ± SD
Text: as §1

HSV = conditions: NIAID Collaborative Study; cited from earlier work

Cc1cn([C@@H]2O[C@H](CO)[C@@H](O)[C@@H]2F)c(=O)[nH]c1=O [FMAU]
metabolic alteration [1]: only a minor fraction undergoes metabolic alteration

Cc1cn([C@@H]2O[C@H](CO)[C@@H](O)[C@@H]2F)[14c](=O)[nH]c1=O [^14 C-FMAU]
plasma ^14 C-FMAU concentration time course ([2]; 5 mg/kg i.v., to 6 hours): fell rapidly over the first 30 mins and more slowly thereafter
plasma ^14 C-FMAU concentration at the time of sacrifice ([2]; 6 hours after 5 mg/kg i.v.): approximately 185 nCi/gm
isotope uptake in or surrounding the area of necrosis [3]: no increase in isotope uptake was detected
isotope uptake within infected brain regions (HSV-1; 24 hours after isotope injection): similarly enhanced within infected brain regions
activity in lateral walls of the lateral ventricles (HSV-1; 24 hours, apparently uninfected ependymal lining): higher activity was noted
^14 C Radioactivity Concentration (HSV-1; Brain (C): Background, left cortex, viral antigen -, 6 hours): 104.35 ± 4.88 nCi/gm
^14 C Radioactivity Concentration (HSV-1; Brain (C): Left ventricular choroid plexus, viral antigen -, 6 hours): 188.59 ± 9.18 nCi/gm
^14 C Radioactivity Concentration (HSV-1; Brain (C): Optic chiasm, right, viral antigen +, 6 hours): 325.12 ± 16.46 nCi/gm
^14 C Radioactivity Concentration (HSV-1; Brain (D): Background, left cortex, viral antigen -, 6 hours): 95.29 ± 4.32 nCi/gm
^14 C Radioactivity Concentration (HSV-1; Brain (D): Left hypothalamus, viral antigen +, 6 hours): 1170.91 ± 66.90 nCi/gm
^14 C Radioactivity Concentration (HSV-1; Brain (D): Left optic tract, viral antigen +, 6 hours): 1105.89 ± 77.34 nCi/gm
^14 C Radioactivity Concentration (HSV-1; Brain (D): Right hypothalamus, viral antigen +, 6 hours): 1138.10 ± 99.57 nCi/gm
^14 C Radioactivity Concentration (HSV-1; Brain (E): Background, left cortex, viral antigen -, 6 hours): 96.78 ± 4.66 nCi/gm
^14 C Radioactivity Concentration (HSV-1; Brain (E): Background, right central thalamus, viral antigen -, 6 hours): 67.47 ± 3.90 nCi/gm
^14 C Radioactivity Concentration (HSV-1; Brain (E): Left dorsomedial thalamus, viral antigen +, 6 hours): 1183.53 ± 163.31 nCi/gm
^14 C Radioactivity Concentration (HSV-1; Brain (E): Left lateral thalamus, viral antigen +, 6 hours): 198.21 ± 21.00 nCi/gm
^14 C Radioactivity Concentration (HSV-1; Brain (F): Background, left cortex, viral antigen -, 6 hours): 106.57 ± 5.53 nCi/gm
^14 C Radioactivity Concentration (HSV-1; Brain (F): Central midbrain, viral antigen +, 6 hours): 468.81 ± 23.96 nCi/gm
^14 C Radioactivity Concentration (HSV-1; Brain (G): Background, central brainstem, viral antigen -, 6 hours): 110.97 ± 9.98 nCi/gm
^14 C Radioactivity Concentration (HSV-1; Brain (G): Background, left cortex, viral antigen -, 6 hours): 83.08 ± 7.70 nCi/gm
^14 C Radioactivity Concentration (HSV-1; Brain (G): Pineal gland, viral antigen +, 6 hours): 1509.18 ± 97.65 nCi/gm
^14 C Radioactivity Concentration (HSV-1; Eye (B): Retina, inferior, viral antigen +, 6 hours): 1528.07 ± 140.36 nCi/gm
^14 C Radioactivity Concentration (HSV-1; Eye (B): Retina, posterior, viral antigen +, 6 hours): 2447.81 ± 172.66 nCi/gm
^14 C Radioactivity Concentration (HSV-1; Liver, viral antigen staining -, 6 hours after ^14 C-FMAU (5 mg/kg i.v.)): 188.25 ± 13.19 nCi/gm
^14 C activity within infected regions vs background (HSV-1; each HSV-1-infected rat): exceeded background within infected regions and correlating closely with viral antigen staining in each case
selectivity of uptake by infected brain cells (HSV-1; radiolabeled FMAU, HSV-1 infection): selectively taken up by infected brain cells
background distribution of ^14 C activity (HSV-1; uninfected brain regions, 6 hours): quite uniform, with only minor variations among uninfected brain regions

Nc1ncnc2c1ncn2[C@@H]1O[C@H](CO)[C@@H](O)[C@@H]1O [ara-A]
therapeutic effect in HSV encephalitis (HSV): less than optimal
